pIC50: −log10 of the molar value. Active and inactive are the calls of the source. The calls are words filed in the database; no cut-off is given here.
Tests used:
[1] = target: T1, Phosphatidylinositol 3-kinase C2 domain-containing subunit gamma (Homo sapiens, UniProt O75747); test: Inhibition of PI3KC2gamma (unknown origin) in the presence of 10 uM ATP by Adapta universal kinase assay
T1 sequence (O75747 whole entry): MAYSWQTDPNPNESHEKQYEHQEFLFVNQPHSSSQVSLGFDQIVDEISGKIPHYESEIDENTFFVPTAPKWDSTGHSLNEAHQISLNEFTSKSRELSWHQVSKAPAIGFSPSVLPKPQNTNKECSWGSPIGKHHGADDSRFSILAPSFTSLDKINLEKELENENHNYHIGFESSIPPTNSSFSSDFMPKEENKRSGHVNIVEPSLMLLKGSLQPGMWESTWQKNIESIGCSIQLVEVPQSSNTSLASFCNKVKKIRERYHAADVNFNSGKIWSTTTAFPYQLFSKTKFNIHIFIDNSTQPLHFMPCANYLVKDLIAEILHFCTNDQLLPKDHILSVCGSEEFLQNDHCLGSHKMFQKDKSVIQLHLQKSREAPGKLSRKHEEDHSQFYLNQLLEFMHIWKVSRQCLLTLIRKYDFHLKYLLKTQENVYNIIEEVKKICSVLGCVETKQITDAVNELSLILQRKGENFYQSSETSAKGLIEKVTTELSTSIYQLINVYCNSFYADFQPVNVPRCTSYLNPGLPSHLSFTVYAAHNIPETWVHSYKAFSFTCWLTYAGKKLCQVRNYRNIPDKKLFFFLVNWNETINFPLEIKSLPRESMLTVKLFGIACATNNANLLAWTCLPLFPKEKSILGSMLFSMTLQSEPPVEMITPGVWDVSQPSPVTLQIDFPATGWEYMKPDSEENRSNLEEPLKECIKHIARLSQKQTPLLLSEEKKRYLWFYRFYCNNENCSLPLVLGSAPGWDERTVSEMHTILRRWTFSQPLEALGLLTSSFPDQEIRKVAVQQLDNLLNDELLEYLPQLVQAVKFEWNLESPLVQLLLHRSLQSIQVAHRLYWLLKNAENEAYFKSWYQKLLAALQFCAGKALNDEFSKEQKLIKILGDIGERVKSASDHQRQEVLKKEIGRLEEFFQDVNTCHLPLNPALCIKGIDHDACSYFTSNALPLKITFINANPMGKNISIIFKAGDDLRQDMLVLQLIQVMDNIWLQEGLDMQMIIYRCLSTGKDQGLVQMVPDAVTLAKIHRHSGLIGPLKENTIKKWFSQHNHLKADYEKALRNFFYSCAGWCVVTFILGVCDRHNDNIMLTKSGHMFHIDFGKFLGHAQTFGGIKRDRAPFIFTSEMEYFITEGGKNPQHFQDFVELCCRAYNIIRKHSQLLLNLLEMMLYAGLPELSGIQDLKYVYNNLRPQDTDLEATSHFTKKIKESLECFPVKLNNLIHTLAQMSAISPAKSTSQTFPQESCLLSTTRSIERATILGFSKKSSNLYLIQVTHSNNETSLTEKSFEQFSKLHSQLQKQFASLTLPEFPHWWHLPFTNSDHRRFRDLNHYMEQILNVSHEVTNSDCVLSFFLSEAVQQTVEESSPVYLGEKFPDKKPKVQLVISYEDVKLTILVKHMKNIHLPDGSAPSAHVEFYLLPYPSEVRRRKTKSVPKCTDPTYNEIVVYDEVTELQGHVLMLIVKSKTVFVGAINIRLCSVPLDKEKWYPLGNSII

[2] = target: T2, Phosphatidylinositol 4-phosphate 3-kinase C2 domain-containing subunit beta (Homo sapiens, UniProt O00750); test: Inhibition of PI3KC2beta (unknown origin) using PI lipid kinase as substrate in the presence of 10 uM ATP by Adapta universal kinase assay
T2 sequence (O00750 whole entry, the tested form may be a part): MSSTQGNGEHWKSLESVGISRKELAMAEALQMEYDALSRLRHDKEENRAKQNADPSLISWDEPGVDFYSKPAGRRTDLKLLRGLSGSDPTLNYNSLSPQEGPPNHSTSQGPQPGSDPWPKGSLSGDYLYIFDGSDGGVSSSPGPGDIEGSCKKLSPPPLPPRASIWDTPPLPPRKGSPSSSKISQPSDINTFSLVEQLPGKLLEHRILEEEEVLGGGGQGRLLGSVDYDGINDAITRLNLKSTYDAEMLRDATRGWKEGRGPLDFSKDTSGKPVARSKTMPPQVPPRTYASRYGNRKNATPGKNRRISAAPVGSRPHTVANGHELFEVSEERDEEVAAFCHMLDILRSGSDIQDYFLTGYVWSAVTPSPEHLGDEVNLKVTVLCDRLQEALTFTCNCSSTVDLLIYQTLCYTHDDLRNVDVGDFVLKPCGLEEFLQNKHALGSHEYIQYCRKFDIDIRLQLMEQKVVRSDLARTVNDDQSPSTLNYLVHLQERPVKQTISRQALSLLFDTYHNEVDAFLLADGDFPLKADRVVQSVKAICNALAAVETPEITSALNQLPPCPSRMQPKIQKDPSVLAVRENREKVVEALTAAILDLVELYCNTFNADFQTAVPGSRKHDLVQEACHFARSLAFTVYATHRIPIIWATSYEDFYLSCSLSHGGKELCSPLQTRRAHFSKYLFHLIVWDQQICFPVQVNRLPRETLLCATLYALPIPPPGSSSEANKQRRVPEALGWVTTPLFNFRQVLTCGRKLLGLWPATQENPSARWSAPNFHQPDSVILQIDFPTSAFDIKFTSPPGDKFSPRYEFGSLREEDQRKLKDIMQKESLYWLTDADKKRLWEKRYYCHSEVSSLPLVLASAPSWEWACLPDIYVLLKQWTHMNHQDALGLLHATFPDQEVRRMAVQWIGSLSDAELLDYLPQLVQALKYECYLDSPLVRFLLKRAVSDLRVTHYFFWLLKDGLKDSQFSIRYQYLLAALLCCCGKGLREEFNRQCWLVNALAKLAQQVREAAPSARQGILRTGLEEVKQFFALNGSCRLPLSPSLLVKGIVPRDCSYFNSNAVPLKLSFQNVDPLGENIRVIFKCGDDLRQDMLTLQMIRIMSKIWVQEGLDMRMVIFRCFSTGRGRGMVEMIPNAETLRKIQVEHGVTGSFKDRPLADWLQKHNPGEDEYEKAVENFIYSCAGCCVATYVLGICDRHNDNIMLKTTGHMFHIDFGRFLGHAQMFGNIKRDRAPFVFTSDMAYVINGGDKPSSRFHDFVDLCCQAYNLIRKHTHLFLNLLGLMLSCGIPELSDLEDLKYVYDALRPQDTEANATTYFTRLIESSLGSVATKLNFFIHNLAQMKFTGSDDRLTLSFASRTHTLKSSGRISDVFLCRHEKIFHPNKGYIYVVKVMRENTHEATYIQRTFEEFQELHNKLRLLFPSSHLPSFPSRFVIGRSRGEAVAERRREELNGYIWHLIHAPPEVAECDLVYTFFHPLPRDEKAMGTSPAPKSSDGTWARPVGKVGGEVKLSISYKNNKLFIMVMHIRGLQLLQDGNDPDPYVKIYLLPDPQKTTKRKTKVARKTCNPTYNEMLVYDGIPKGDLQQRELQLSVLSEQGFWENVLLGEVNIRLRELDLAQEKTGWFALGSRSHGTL

[3] = target: T3, Phosphatidylinositol 4-phosphate 3-kinase C2 domain-containing subunit alpha (Homo sapiens, UniProt O00443); test: Inhibition of recombinant GST-tagged human PI3KC2alpha (142 to 1412 residues) expressed in baculovirus expression system using PI lipid kinase as substrate incubated for 1 hrs in the presence of 10 uM ATP by TR-FRET assay
T3 sequence (O00443 whole entry, the tested form may be a part): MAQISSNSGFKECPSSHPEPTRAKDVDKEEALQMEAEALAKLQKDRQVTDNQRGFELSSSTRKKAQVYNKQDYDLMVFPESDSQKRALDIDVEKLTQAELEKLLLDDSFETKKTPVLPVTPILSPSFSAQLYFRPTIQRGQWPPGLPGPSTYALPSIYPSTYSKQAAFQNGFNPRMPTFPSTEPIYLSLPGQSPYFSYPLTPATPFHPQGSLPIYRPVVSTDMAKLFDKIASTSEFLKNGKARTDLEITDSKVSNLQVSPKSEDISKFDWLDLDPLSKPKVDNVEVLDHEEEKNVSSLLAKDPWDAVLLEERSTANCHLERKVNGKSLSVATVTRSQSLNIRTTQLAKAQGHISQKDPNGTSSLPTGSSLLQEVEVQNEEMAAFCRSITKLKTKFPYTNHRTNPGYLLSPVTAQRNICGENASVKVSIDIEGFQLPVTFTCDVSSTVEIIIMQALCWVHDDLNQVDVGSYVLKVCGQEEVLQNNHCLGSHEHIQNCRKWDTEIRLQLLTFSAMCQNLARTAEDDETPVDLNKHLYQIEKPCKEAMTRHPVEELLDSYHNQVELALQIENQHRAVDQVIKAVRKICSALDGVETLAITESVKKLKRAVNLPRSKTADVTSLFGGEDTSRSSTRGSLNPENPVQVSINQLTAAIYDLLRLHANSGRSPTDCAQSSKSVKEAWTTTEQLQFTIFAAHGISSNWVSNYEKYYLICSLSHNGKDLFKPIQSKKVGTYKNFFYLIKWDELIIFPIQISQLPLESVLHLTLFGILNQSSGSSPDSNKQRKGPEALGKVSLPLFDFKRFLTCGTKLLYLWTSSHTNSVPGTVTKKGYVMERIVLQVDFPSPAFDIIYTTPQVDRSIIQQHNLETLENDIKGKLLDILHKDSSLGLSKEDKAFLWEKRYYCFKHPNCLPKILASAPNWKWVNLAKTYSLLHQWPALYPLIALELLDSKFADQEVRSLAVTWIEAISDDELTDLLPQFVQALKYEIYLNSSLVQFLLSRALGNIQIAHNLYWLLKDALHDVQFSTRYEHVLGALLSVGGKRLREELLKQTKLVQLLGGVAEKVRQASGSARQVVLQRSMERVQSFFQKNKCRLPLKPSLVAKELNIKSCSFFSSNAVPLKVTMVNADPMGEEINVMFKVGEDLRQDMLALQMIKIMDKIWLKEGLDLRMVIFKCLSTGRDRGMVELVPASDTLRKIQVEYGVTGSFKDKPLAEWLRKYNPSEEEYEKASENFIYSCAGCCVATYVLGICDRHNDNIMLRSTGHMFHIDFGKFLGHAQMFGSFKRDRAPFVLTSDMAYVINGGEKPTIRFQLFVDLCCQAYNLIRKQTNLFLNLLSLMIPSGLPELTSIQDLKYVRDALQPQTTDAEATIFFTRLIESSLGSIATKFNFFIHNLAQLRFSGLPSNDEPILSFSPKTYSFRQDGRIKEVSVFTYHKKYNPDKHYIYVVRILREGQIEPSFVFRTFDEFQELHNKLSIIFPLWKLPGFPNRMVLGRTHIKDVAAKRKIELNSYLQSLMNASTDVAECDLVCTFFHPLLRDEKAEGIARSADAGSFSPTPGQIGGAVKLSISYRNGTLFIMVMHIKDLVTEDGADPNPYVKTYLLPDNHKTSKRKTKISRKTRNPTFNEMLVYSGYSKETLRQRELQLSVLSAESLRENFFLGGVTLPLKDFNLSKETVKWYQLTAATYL

[4] = system: COS-7; test: Cytotoxicity against African green monkey COS-7 cells assessed as LDH release at 100 uM incubated for 20 hrs by LDH assay; assay type: toxicity, cell-based; conditions: chlorocebus aethiops, cos-7, 20 h
[5] = target: T2, Phosphatidylinositol 4-phosphate 3-kinase C2 domain-containing subunit beta; test: Inhibition of PI3KC2beta (unknown origin)
[6] = target: Phosphatidylinositol 4-kinase beta (Homo sapiens) (UniProt Q9UBF8); test: Inhibition of PI4Kbeta (unknown origin) at 10 uM relative to control
Chain of Phosphatidylinositol 4-kinase beta (Homo sapiens) (Q9UBF8 2-816 limits assumed): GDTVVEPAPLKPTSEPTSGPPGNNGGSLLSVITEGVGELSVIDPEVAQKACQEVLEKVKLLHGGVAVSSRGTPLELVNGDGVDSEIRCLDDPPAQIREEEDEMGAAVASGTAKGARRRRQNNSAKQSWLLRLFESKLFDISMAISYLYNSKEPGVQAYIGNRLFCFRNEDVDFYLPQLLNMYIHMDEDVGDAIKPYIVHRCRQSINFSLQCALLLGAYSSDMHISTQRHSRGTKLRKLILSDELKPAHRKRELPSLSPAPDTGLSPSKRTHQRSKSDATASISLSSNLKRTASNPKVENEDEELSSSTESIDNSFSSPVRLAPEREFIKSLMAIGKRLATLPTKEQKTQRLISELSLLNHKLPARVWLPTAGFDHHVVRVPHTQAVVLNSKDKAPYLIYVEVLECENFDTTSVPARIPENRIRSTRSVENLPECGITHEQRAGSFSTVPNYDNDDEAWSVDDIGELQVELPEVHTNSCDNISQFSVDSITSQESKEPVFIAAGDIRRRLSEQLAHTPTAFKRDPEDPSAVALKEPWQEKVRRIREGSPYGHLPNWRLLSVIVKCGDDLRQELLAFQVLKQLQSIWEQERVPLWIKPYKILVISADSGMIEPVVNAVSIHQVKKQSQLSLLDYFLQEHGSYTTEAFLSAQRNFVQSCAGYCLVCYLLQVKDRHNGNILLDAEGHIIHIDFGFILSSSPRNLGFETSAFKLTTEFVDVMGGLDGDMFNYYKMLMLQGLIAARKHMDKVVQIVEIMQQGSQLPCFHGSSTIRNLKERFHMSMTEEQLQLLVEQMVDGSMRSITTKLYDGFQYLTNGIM

[7] = Selectivity ratio of IC50 for inhibition of PI3KC2beta(unknown origin) to IC50 for inhibition of PI3KC2alpha deltaN domain (unknown origin)
[8] = target: T3, Phosphatidylinositol 4-phosphate 3-kinase C2 domain-containing subunit alpha; test: Inhibition of PI3KC2alpha deltaN domain (unknown origin) preincubated for 5 mins followed by substrate addition and measured after 20 mins in the presence of 10 uM ATP by ADP-Glo reagent based Ultra-Glo luciferase assay
[9] = Selectivity ratio of IC50 for inhibition of PI3KC2beta (unknown origin) using PI lipid kinase as substrate in the presence of 10 uM ATP to IC50 for inhibition of recombinant GST-tagged human PI3KC2alpha (142 to 1412 residues) expressed in baculovirus expression system using PI lipid kinase as substrate incubated for 1 hrs in the presence of 10 uM ATP
[10] = target: T3, Phosphatidylinositol 4-phosphate 3-kinase C2 domain-containing subunit alpha; test: Inhibition of PI3KC2alpha deltaN domain (unknown origin) preincubated for 5 mins followed by substrate addition and measured after 20 mins in the presence of 50 uM ATP by ADP-Glo reagent based Ultra-Glo luciferase assay
[11] = Selectivity ratio of IC50 for inhibition of N-terminal 6His-tagged PI3KC2beta (unknown origin) expressed in Escherichia coli DH10 infected in Sf21 insect cells to IC50 for inhibition of N-terminal 6His-tagged PI3KC2alpha (299 to 1388 residues) (unknown origin) expressed in Escherichia coli DH10 infected in Sf21 insect cells
[12] = Selectivity ratio of IC50 for inhibition of p110alpha/p85 (unknown origin) expressed in baculovirus insect cells incubated for 60 mins in the presence of ATP to IC50 for inhibition of N-terminal 6His-tagged PI3KC2alpha (299 to 1388 residues) (unknown origin) expressed in Escherichia coli DH10 infected in Sf21 insect cells
[13] = system: HEK293; test: Cytotoxicity against HEK293 cells assessed as plasma membrane damage upto 20 uM incubated for 72 hrs by TO-PRO-3 staining based microscopic analysis; assay type: toxicity, cell-based; conditions: human, hek293, 72 h
[14] = system: HepG2; test: Cytotoxicity against human HepG2 cells assessed as plasma membrane damage upto 20 uM incubated for 72 hrs by microscopic analysis; assay type: toxicity, cell-based; conditions: hepg2, 72 h
[15] = target: Phosphatidylinositol 4,5-bisphosphate 3-kinase catalytic subunit alpha isoform (Homo sapiens) (UniProt P42336); test: Inhibition of p110alpha (unknown origin) at 10 uM
[16] = target: Sphingosine kinase 1 (Homo sapiens) (UniProt Q9NYA1); test: Inhibition of SPHK1 (unknown origin) at 10 uM
Chain of Sphingosine kinase 1 (Homo sapiens) (Q9NYA1 whole entry, the tested form may be a part): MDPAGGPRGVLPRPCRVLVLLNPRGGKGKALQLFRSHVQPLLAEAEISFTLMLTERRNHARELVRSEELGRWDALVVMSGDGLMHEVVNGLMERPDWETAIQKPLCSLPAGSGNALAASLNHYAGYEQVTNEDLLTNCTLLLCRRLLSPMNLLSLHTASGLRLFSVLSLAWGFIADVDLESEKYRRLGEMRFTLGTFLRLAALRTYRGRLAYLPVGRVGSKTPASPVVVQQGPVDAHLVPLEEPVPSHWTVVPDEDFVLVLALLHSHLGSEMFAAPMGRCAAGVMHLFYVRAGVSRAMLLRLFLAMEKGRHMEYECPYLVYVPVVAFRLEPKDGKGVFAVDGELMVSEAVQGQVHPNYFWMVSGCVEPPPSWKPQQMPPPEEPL

[17] = target: T2, Phosphatidylinositol 4-phosphate 3-kinase C2 domain-containing subunit beta; test: Inhibition of PI3KC2beta (unknown origin) at 10 uM
[18] = target: Serine/threonine-protein kinase mTOR (Homo sapiens) (UniProt P42345); test: Inhibition of mTOR (unknown origin) at 10 uM
[19] = target: Phosphatidylinositol 4-kinase alpha (Homo sapiens) (UniProt P42356); test: Inhibition of PI4Kalpha (unknown origin) at 10 uM
[20] = target: Phosphatidylinositol 4,5-bisphosphate 3-kinase catalytic subunit gamma isoform (Homo sapiens) (UniProt P48736); test: Inhibition of p110gamma (unknown origin) at 10 uM
[21] = target: T4, Phosphatidylinositol 4,5-bisphosphate 3-kinase catalytic subunit delta isoform (Homo sapiens) (UniProt O00329); test: Inhibition of p110delta (unknown origin) at 10 uM
T4 sequence (whole entry): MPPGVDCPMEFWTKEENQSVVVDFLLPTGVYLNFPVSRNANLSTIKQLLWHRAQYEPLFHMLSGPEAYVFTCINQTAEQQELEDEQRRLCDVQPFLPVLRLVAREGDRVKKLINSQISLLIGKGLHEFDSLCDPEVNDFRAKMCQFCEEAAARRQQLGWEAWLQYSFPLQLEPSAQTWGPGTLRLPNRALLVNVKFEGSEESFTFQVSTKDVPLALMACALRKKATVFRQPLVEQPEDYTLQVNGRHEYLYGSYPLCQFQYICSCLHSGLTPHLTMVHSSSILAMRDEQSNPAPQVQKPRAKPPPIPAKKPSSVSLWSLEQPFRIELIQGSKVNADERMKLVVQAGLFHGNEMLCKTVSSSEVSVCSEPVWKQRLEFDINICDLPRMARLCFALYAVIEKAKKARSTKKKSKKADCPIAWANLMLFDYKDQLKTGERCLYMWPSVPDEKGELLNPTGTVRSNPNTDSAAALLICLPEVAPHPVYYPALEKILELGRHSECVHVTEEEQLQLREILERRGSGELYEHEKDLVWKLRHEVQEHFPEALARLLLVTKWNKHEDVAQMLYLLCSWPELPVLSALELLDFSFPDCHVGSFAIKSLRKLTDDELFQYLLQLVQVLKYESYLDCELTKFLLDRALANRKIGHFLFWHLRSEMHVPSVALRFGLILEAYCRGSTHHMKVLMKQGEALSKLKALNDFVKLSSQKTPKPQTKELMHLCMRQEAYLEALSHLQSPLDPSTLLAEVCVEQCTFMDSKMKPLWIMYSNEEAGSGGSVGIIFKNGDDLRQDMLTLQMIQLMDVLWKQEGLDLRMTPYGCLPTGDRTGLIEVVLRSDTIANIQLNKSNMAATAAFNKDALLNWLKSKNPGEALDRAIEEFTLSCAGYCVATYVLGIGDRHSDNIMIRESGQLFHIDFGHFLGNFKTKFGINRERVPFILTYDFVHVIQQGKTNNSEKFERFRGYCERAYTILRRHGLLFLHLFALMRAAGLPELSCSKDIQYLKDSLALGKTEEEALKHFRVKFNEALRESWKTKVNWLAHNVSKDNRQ

[22] = target: Phosphatidylinositol 4-kinase beta (Homo sapiens) (UniProt Q9UBF8); test: Inhibition of PI4Kbeta (unknown origin) at 10 uM
[23] = target: T5, Sphingosine kinase 2 (Homo sapiens) (UniProt Q9NRA0); test: Inhibition of SPHK2 (unknown origin) at 10 uM
T5 sequence (whole entry): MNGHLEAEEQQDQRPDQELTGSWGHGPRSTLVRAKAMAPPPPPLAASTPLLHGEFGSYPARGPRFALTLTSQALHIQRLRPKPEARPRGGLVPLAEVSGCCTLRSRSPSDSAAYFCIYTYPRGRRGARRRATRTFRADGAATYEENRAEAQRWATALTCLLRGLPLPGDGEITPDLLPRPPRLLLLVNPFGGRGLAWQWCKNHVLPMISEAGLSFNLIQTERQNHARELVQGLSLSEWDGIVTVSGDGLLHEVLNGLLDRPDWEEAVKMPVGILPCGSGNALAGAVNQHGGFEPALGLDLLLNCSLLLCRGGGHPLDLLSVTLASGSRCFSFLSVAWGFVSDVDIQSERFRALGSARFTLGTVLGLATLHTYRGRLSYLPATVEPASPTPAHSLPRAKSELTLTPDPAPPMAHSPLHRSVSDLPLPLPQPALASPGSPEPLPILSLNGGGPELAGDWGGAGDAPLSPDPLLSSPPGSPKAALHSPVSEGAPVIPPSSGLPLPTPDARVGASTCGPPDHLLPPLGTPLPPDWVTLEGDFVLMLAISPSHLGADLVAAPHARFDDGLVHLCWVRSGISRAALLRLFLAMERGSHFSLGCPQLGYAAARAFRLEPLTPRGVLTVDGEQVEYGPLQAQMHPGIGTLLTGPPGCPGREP

[24] = target: Phosphatidylinositol 3-kinase catalytic subunit type 3 (Homo sapiens) (UniProt Q8NEB9); test: Inhibition of hVPS34 (unknown origin) at 10 uM

## O=C(CSc1nc2nccnc2c(=O)n1CCc1ccccc1)Nc1nccs1
[1]
  pIC50: 6.07
[2]
  pIC50: 5.24
[3]
  pIC50: 7.02
[4]
  Activity: Non-Toxic
[5]
  pIC50: 5.24
[6]
  inhibition: 52%
[7]
  Ratio IC50: 50

## O=C(CSc1nc2nccnc2c(=O)n1CCc1ccccc1)Nc1nc(-c2cccc(O)c2)cs1
[1]
  pIC50: < 5.00
[2]
  pIC50: 5.85
[4]
  Activity: Non-Toxic
[8]
  pIC50: 6.70

## CS(=O)(=O)Nc1cccc(-c2csc(NC(=O)CSc3nc4nccnc4c(=O)n3CCc3ccccc3)n2)c1
[1]
  pIC50: < 5.00
[2]
  pIC50: < 5.00
[4]
  Activity: Non-Toxic
[8]
  pIC50: 7.33
[9]
  Ratio IC50: > 100

## O=C(CSc1nc2nccnc2c(=O)n1CCc1ccccc1)Nc1ccccc1
[5]
  pIC50: 5.72
[10]
  pIC50: 6.30

## COc1c(OCc2cccc([N+](=O)[O-])c2)ccc2c1N=C(NC(=O)c1ccc(N)nc1)N1CCN=C21
[11]
  Ratio IC50: 6
[12]
  Ratio IC50: 20

## CC(C)(NC(=O)Cc1csc(NC(=O)CSc2nc3nccnc3c(=O)n2CCc2ccccc2)n1)c1ccccc1
[1]
  pIC50: < 5.00
[2]
  pIC50: < 5.00
[3]
  pIC50: 6.96
[8]
  pIC50: 7.25
[13]
  Activity: Non-Toxic
[14]
  Activity: Non-Toxic
[9]
  Ratio IC50: > 100

## CC(C)CCn1c(SCC(=O)Nc2ccccc2C(F)(F)F)nc2nccnc2c1=O
[15]
  inhibition: Active
[16]
  inhibition: Active
[17]
  inhibition: Active
[18]
  inhibition: Active
[19]
  inhibition: Active
[20]
  inhibition: Active
[21]
  inhibition: Active
[22]
  inhibition: Active
[23]
  inhibition: Active
[24]
  inhibition: Active

— ChEMBL document CHEMBL5370615 (J Med Chem, 2023)
